One experiment concerns NCI-H929. Description: Cytostatic activity on human multiple myeloma cell line NCI-H929 (WST-1). It is filed as cell-based. As to conditions: for inhibition at 1 µM: Homo sapiens, NCI-H929, 72 h, read-out: cytostatic rate (%) H929 (1 μmol/L). In outline:
(§1)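 Cytostatic rate is 100 minus % growth relative to DMSO-only wells (100%) and blank wells (0%), read by WST-1 absorbance at 450/690 nm after 2 h. Compound at 1 or 10 μmol/L final was applied for 72 h at 37 °C to cells seeded 24 h earlier.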

The test system of the next experiment is KMS-11. The experiment is described as follows: Cytostatic activity on human multiple myeloma cell line KMS-11 (WST-1). It is filed as cell-based. The following applies: for inhibition at 1 µM: Homo sapiens, KMS-11, 72 h, read-out: cytostatic rate (%) KMS-11 (1 μmol/L). In outline: as §1
(Tetrazolium dyes change colour on reduction, which living cells bring about.)

The test system of a further experiment is AsPC-1. Description: Cytostatic activity on human pancreatic cancer cell line AsPC-1 (WST-1). It is filed as cell-based. As to conditions: for inhibition at 10 µM: Homo sapiens, ASPC1, 72 h. The procedure: (§2) The cytostatic rates of the test compound on the human pancreatic cancer cell line AsPC-1 and the human colon cancer cell line Colo205 were determined in the following manner.
(§3) For culturing AsPC-1, RPMI 1640 medium containing 20% fetal bovine serum, 1 mmol/L sodium pyruvate, 10 mmol/L HEPES, 4.5 g/L glucose and penicillin/streptomycin (1:1). The Colo205 cell was cultured using RPMI 1640 medium containing 10% fetal bovine serum, 1 mmol/L sodium pyruvate, 10 mmol/L HEPES, 4.5 g/L glucose and penicillin/streptomycin (1:1) was used. Each 80 μL of the AsPC-1 cell having a concentration of 5×10^4 cells/mL (or the Colo205 having a concentration of 5×10^4 cells/mL) was inoculated to wells of a TC MICROWELL 96F plate (Nalge Nunc International, Catalog No. 167008) and was cultured in a 5% carbon dioxide gas incubator at 37° C. for 24 hours. Each 20 μL of a solution of the test compound in DMSO which was prepared to make the final concentration to 1 μmol/L or 10 μmol/L, was added to each well. Each 20 μL of DMSO was added to the control well and the blank well to a final concentration of 0.1%. After adding the test compound, the cell was incubated in a 5% carbon dioxide gas incubator at 37° C. for 72 hours except for the blank well. After adding 20 μL of WST-1 reagent which was diluted to 50% by RPMI medium to each well, the cells were further incubated at 37° C. for 2 hours. Then, the absorbances at 450 nm (reference wavelength: 690 nm) were determined with a microplate spectrophotometer SPECTRA max 340PC. The cytostatic rate (%) was then determined in the similar manner to the above multiple myeloma cell lines.

The test system of another experiment is Colo205. Description: Cytostatic activity on human colon cancer cell line Colo205 (WST-1). It is filed as cell-based. As to conditions: for inhibition at 10 µM: Homo sapiens, COLO 205, 72 h. The procedure:
as §2, §3

In the next experiment the target is T1, IGF-1R (Homo sapiens, UniProt P08069).
T1 construct: purchased Upstate Co. 14-465
The experiment is described as follows: IGF-1R inhibitory activity (kinase reaction, time-resolved fluoroimmunoassay). It is filed as biochemical. The following applies: IGF-1R active recombinant enzyme, test compound 10 μmol/L. In outline: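 Compounds were tested at a single 10 μmol/L concentration. Each was incubated with recombinant IGF-1R (200 μg/L), 10 mmol/L ATP, MgCl2/MnCl2 and Na3VO4 (pH 7.5) on immobilized poly(Glu-Tyr) peptide for 30 min at 24° C. Eu-anti-phosphotyrosine time-resolved fluorescence (340/615 nm) gave relative activity against no-compound and no-enzyme wells, reported as % inhibition.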

[1] abbreviates: 10 μmol/L, read-out: cytostatic rate (%) AsPC-1 (10 μmol/L).
Setting [2] is: 10 μmol/L, read-out: cytostatic rate (%) Colo205 (10 μmol/L).
[3] abbreviates: NCI-H929 cells, test compound 1 μmol/L, WST-1.
The mark [4] stands for this setting: KMS-11 cells, test compound 1 μmol/L, WST-1.
The mark [5] stands for this setting: AsPC-1 cells, test compound 10 μmol/L, WST-1, read-out: cytostatic rate (%) AsPC-1 (10 μmol/L).
[6] abbreviates: Colo205 cells, test compound 10 μmol/L, WST-1, read-out: cytostatic rate (%) Colo205 (10 μmol/L).

Where two headings read alike, the source gives them in different places.

T1 sequence (P08069 959-1367 limits assumed): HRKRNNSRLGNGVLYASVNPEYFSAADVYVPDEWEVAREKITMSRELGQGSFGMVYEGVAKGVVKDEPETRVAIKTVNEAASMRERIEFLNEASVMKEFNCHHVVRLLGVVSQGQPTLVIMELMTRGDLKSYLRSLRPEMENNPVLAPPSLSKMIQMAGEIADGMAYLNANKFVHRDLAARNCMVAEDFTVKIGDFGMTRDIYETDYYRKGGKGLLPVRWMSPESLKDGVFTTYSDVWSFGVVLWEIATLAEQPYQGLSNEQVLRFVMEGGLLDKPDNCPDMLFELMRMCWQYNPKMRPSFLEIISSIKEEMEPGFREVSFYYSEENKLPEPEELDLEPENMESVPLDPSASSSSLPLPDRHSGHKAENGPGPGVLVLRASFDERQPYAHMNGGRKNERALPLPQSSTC

For `Cc1ccsc1C(=O)Nc1cc(CN(CCO)CCN2CCOCC2)ccc1/C=C/c1n[nH]c2ccccc12` [Compound 253, (E)-N-{5-[N-(2-hydroxyethyl)-2-(morpholin-4-yl)ethylaminomethyl]-2-[2-(1H-indazol-3-yl)vinyl]phenyl}-3-methylthiophene-2-carboxamide], the inhibition at 1 µM amounted to 119% in the experiment with NCI-H929 (1 μmol/L, 72 hours) and 109% in the experiment with KMS-11 (1 μmol/L, 72 hours). Besides, the inhibition at 10 µM in the experiment on AsPC-1 (setting [1]) was found to be 100%; in the experiment with Colo205 (setting [2]), 122%; at IGF-1R, 98.7%.

In the case of `CCN(CC)CCOc1ccc(/C=C/c2n[nH]c3ccccc23)c(NC(=O)c2sccc2C)c1OC` [Compound 263, (E)-N-{3-(2-diethylaminoethoxy)-6-[2-(1H-indazol-3-yl)vinyl]-2-methoxymephenyl}-3-methylthiophene-2-carboxamide], the “cytostatic rate (%) H929 (1 μmol/L)” value with NCI-H929 (1 μmol/L, 72 hours) came to 116.0%. For the same molecule, the “cytostatic rate (%) KMS-11 (1 μmol/L)” value in the experiment on KMS-11 (1 μmol/L, 72 hours) came to 126.2%. Moreover, the “cytostatic rate (%) AsPC-1 (10 μmol/L)” value in the experiment with AsPC-1 (10 μmol/L, 72 hours) turned out to be 103.4%. The “cytostatic rate (%) Colo205 (10 μmol/L)” value in the experiment with Colo205 (10 μmol/L, 72 hours) was 120.5%. Further, the “inhibitory activity (%) at 10 μmol/L” value on IGF-1R is reported as 100.9%.

For `Nc1cccc2c1C(=O)N(c1cc(C(=O)N3CCOCC3)ccc1/C=C/c1n[nH]c3ccccc13)C2=O` [Compound 288, (E)-4-amino-N-{2-[2-(1H-indazol-3-yl)vinyl]-5-(morpholin-4-ylcarbonyl)phenyl}isoindole-1,3-dione], the inhibition at 1 µM in the experiment with NCI-H929 (1 μmol/L, 72 hours) amounted to 118%; in the experiment on KMS-11 (1 μmol/L, 72 hours), 109%. Besides, the inhibition at 10 µM in the experiment on AsPC-1 (setting [1]) came to 94.5%; in the experiment on Colo205 (setting [2]), 120%; at IGF-1R, 97.9%.

Consider `Cc1ccsc1C(=O)Nc1cc(CN2CCN(CC(C)(C)O)CC2)ccc1/C=C/c1n[nH]c2ccccc12` [Compound 312, (E)-N-{5-[4-(2-hydroxy-2-methylpropyl)piperazin-1-ylmethyl]-2-[2-(1H-indazol-3-yl)vinyl]phenyl}-3-methylthiophene-2-carboxamide], for which the inhibition at 1 µM is 115% with NCI-H929 (setting [3]) and 108% in the experiment with KMS-11 (setting [4]). The inhibition at 10 µM in the experiment with AsPC-1 (setting [5]) amounted to 101%; in the experiment on Colo205 (setting [6]), 120%; at IGF-1R, 105%.

As for `Cc1ccsc1C(=O)Nc1cc(CN2CCN(CCOCCO)CC2)ccc1/C=C/c1n[nH]c2ccccc12` [Compound 318, (E)-N-{5-{4-[2-(2-hydroxyethoxy)ethyl]piperazin-1-ylmethyl}-2-[2-(1H-indazol-3-yl)vinyl]-phenyl}-3-methylthiophene-2-carboxamide], the inhibition at 1 µM with NCI-H929 (setting [3]) turned out to be 122%; in the experiment on KMS-11 (setting [4]), 102%. Also, the inhibition at 10 µM in the experiment on AsPC-1 (setting [5]) was 103%; with Colo205 (setting [6]), 120%; on IGF-1R it was 94.7%.

Source of the values: patent publication US7605272B2, “IGF-1R inhibitor” (Kyowa Hakko Kirin Co., Ltd., priority 2005, dated 2009).
